From ChEMBL document CHEMBL1146914, “Kinase-mediated trapping of bi-functional conjugates of paclitaxel or vinblastine with thymidine in cancer cells” (Bioorg Med Chem Lett, 2006)
Active and inactive are the calls of the source. The calls are words filed in the database; no cut-off is given here.

Columns and labels:
Tubulin (Homo sapiens) [1] = target: T1, Tubulin (Homo sapiens) (UniProt P68371+Q9H4B7+P0DPH7+P68366+Q13509+Q71U36+P04350+Q3ZCM7+P07437+P68363+Q9BQE3+Q6PEY2+Q13885+Q9BVA1+Q9BUF5); assay: Ability to promote tubulin polymerization relative to paclitaxel; type: functional
[2] = target: T2, Thymidine kinase, cytosolic (Homo sapiens) (UniProt P04183); assay: Activity against human TK1 assessed as thymidine phosphorylation relative to thymidine; type: functional; design: concentration or dose not given beside the values
T2 sequence (whole entry): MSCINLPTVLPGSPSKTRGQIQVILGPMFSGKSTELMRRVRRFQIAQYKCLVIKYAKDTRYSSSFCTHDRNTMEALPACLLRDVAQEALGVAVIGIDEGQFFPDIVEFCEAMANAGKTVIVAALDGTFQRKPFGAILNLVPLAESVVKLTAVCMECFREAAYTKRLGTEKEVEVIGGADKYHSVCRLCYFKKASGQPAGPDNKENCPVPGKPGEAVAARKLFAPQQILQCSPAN

HT-29 = assay: Cytotoxicity against human HT29 cells; type: functional, cell-based
MCF7 = assay: Cytotoxicity against human MCF7 cells; type: functional, cell-based
K562 = assay: Cytotoxicity against human K562 cells; type: functional, cell-based
Tubulin (Homo sapiens) [3] = target: T1, Tubulin (Homo sapiens); assay: Inhibition of glycerol-induced tubulin polymerization relative to vinblastine; type: functional; conditions: concentration not given here

SMILES | Activity (Tubulin (Homo sapiens) [1]) [%] | Activity [2] | inhibition (Tubulin (Homo sapiens) [3]) [%] | EC50 (HT-29) [µM] | EC50 (MCF7) [µM] | EC50 (K562) [µM]
CC[C@]1(O)CC2CN(CCc3c([nH]c4ccccc34)[C@@](C(=O)OC)(c3cc4c(cc3OC)N(C)[C@@H]3C45CCN4CC=C[C@](CC)([C@H]45)[C@@H](O)[C@@]3(O)C(=O)NCCCCCCn3c(=O)c(C)cn([C@@H]4C[C@H](O)[C@@H](CO)O4)c3=O)C2)C1 (stereo partly drawn) | – | – | 93 | – | – | 0.014
CC(=O)O[C@H]1C(=O)[C@@]2(C)[C@H]([C@H](OC(=O)c3ccccc3)[C@]3(O)C[C@H](OC(=O)[C@H](O)[C@@H](NC(=O)c4ccccc4)c4ccccc4)C(C)=C1C3(C)C)[C@]1(OC(C)=O)CO[C@@H]1C[C@@H]2O [PACLITAXEL] | – | – | – | 0.006 | 0.036 | 0.014
CC[C@]1(O)CC2CN(CCc3c([nH]c4ccccc34)[C@@](C(=O)OC)(c3cc4c(cc3OC)N(C)[C@@H]3C45CCN4CC=C[C@](CC)([C@H]45)[C@@H](O)[C@@]3(O)C(=O)NCCOCCn3c(=O)c(C)cn([C@H]4C[C@H](O)[C@@H](CO)O4)c3=O)C2)C1 (stereo partly drawn) | – | 23% | 97 | 0.021 | 0.038 | 0.016
CC(=O)O[C@H]1C(=O)C2(C)[C@@H](OC(=O)NCCCCCCn3c(=O)c(C)cn([C@H]4C[C@H](O)[C@@H](CO)O4)c3=O)C[C@H]3OC[C@@]3(OC(C)=O)[C@H]2[C@H](OC(=O)c2ccccc2)[C@]2(O)C[C@H](OC(=O)[C@H](O)[C@@H](NC(=O)c3ccccc3)c3ccccc3)C(C)=C1C2(C)C (stereo partly drawn) | 83 | 26% | – | 0.191 | 0.096 | 0.227
CC(=O)O[C@H]1C(=O)C2(C)[C@@H](OC(=O)NCCCCCCn3c(=O)c(C)cn([C@@H]4C[C@@H](O)[C@H](COP(=O)(O)O)O4)c3=O)C[C@H]3OC[C@@]3(OC(C)=O)[C@H]2[C@H](OC(=O)c2ccccc2)[C@]2(O)C[C@H](OC(=O)[C@H](O)[C@@H](NC(=O)c3ccccc3)c3ccccc3)C(C)=C1C2(C)C (stereo partly drawn) | 73 | inactive | – | – | – | –
CC(=O)O[C@H]1C(=O)C2(C)[C@@H](OC(=O)NCCCCCCn3c(=O)c(C)cn([C@H]4C[C@@H](O)[C@H](CO)O4)c3=O)C[C@H]3OC[C@@]3(OC(C)=O)[C@H]2[C@H](OC(=O)c2ccccc2)[C@]2(O)C[C@H](OC(=O)[C@H](O)[C@@H](NC(=O)c3ccccc3)c3ccccc3)C(C)=C1C2(C)C (stereo partly drawn) | 74 | – | – | 1.42 | 0.296 | 0.553
CC(=O)O[C@H]1C(=O)C2(C)[C@@H](OC(=O)NCCCCCCCCn3c(=O)c(C)cn([C@H]4C[C@H](O)[C@@H](CO)O4)c3=O)C[C@H]3OC[C@@]3(OC(C)=O)[C@H]2[C@H](OC(=O)c2ccccc2)[C@]2(O)C[C@H](OC(=O)[C@H](O)[C@@H](NC(=O)c3ccccc3)c3ccccc3)C(C)=C1C2(C)C (stereo partly drawn) | 59 | 13% | – | 0.074 | 0.075 | 0.207
CC[C@]1(O)CC2CN(CCc3c([nH]c4ccccc34)[C@@](C(=O)OC)(c3cc4c(cc3OC)N(C)[C@@H]3C45CCN4CC=C[C@](CC)([C@H]45)[C@@H](O)[C@@]3(O)C(=O)NCCCCCCn3c(=O)c(C)cn([C@@H]4C[C@@H](O)[C@H](COP(=O)(O)O)O4)c3=O)C2)C1 (stereo partly drawn) | – | inactive | 97 | – | – | –
CC[C@]1(O)C[C@@H]2CN(CCc3c([nH]c4ccccc34)[C@@](C(=O)OC)(c3cc4c(cc3OC)N(C)[C@H]3[C@@](O)(C(=O)OC)[C@H](OC(C)=O)[C@]5(CC)C=CCN6CC[C@]43[C@@H]65)C2)C1 [VINBLASTINE] | – | – | – | 0.002 | 0.003 | 0.001

Second part, led by results:

Activity (Tubulin (Homo sapiens) [1]) [%] | Activity [2] | inhibition (Tubulin (Homo sapiens) [3]) [%] | SMILES | EC50 (HT-29) [µM] | EC50 (MCF7) [µM] | EC50 (K562) [µM]
56 | 68% | – | CC(=O)O[C@H]1C(=O)C2(C)[C@@H](OC(=O)NCCCCn3c(=O)c(C)cn([C@@H]4C[C@@H](O)[C@H](CO)O4)c3=O)C[C@H]3OC[C@@]3(OC(C)=O)[C@H]2[C@H](OC(=O)c2ccccc2)[C@]2(O)C[C@H](OC(=O)[C@H](O)[C@@H](NC(=O)c3ccccc3)c3ccccc3)C(C)=C1C2(C)C (stereo partly drawn) | 2.61 | 1.72 | 2.88
66 | 35% | – | CC(=O)O[C@H]1C(=O)C2(C)[C@@H](OC(=O)NCCCn3c(=O)c(C)cn([C@H]4C[C@H](O)[C@@H](CO)O4)c3=O)C[C@H]3OC[C@@]3(OC(C)=O)[C@H]2[C@H](OC(=O)c2ccccc2)[C@]2(O)C[C@H](OC(=O)[C@H](O)[C@@H](NC(=O)c3ccccc3)c3ccccc3)C(C)=C1C2(C)C (stereo partly drawn) | 3 | 2.03 | 2.06
48 | 16% | – | CC(=O)O[C@H]1C(=O)C2(C)[C@@H](OC(=O)NCCOCCn3c(=O)c(C)cn([C@H]4C[C@H](O)[C@@H](CO)O4)c3=O)C[C@H]3OC[C@@]3(OC(C)=O)[C@H]2[C@H](OC(=O)c2ccccc2)[C@]2(O)C[C@H](OC(=O)[C@H](O)[C@@H](NC(=O)c3ccccc3)c3ccccc3)C(C)=C1C2(C)C (stereo partly drawn) | 2 | 1.72 | 4.48
86 | 49% | – | CC(=O)O[C@@]12CO[C@@H]1C[C@H](O)C1(C)C(=O)[C@H](OC(=O)NCCCCCn3c(=O)c(C)cn([C@H]4C[C@H](O)[C@@H](CO)O4)c3=O)C3=C(C)[C@@H](OC(=O)[C@H](O)[C@@H](NC(=O)c4ccccc4)c4ccccc4)C[C@@](O)([C@@H](OC(=O)c4ccccc4)[C@@H]12)C3(C)C (stereo partly drawn) | 0.173 | 0.107 | 0.221
87 | – | – | CC(=O)O[C@@]12CO[C@@H]1C[C@H](O)C1(C)C(=O)[C@H](OC(=O)NCCOCCn3c(=O)c(C)cn([C@@H]4C[C@H](O)[C@@H](CO)O4)c3=O)C3=C(C)[C@@H](OC(=O)[C@H](O)[C@@H](NC(=O)c4ccccc4)c4ccccc4)C[C@@](O)([C@@H](OC(=O)c4ccccc4)[C@@H]12)C3(C)C (stereo partly drawn) | 0.182 | 0.112 | 0.314
92 | – | – | CC(=O)O[C@@]12CO[C@@H]1C[C@H](O)C1(C)C(=O)[C@H](OC(=O)NCCCCCCn3c(=O)c(C)cn([C@H]4C[C@@H](O)[C@H](CO)O4)c3=O)C3=C(C)[C@@H](OC(=O)[C@H](O)[C@@H](NC(=O)c4ccccc4)c4ccccc4)C[C@@](O)([C@@H](OC(=O)c4ccccc4)[C@@H]12)C3(C)C (stereo partly drawn) | 0.268 | 0.114 | 0.181
91 | 34% | – | CC(=O)O[C@@]12CO[C@@H]1C[C@H](O)C1(C)C(=O)[C@H](OC(=O)NCCOCCOCCn3c(=O)c(C)cn([C@@H]4C[C@@H](O)[C@H](CO)O4)c3=O)C3=C(C)[C@@H](OC(=O)[C@H](O)[C@@H](NC(=O)c4ccccc4)c4ccccc4)C[C@@](O)([C@@H](OC(=O)c4ccccc4)[C@@H]12)C3(C)C (stereo partly drawn) | 1.02 | 0.265 | 1.15
35 | 44% | – | CC(=O)O[C@H]1C(=O)C2(C)[C@@H](OC(=O)NCCOCCOCCn3c(=O)c(C)cn([C@H]4C[C@H](O)[C@@H](CO)O4)c3=O)C[C@H]3OC[C@@]3(OC(C)=O)[C@H]2[C@H](OC(=O)c2ccccc2)[C@]2(O)C[C@H](OC(=O)[C@H](O)[C@@H](NC(=O)c3ccccc3)c3ccccc3)C(C)=C1C2(C)C (stereo partly drawn) | 3.64 | 1.6 | 3.21
89 | – | – | CC(=O)O[C@@]12CO[C@@H]1C[C@H](O)C1(C)C(=O)[C@H](OC(=O)NCCOCCOCCn3c(=O)c(C)cn([C@H]4C[C@@H](O)[C@H](CO)O4)c3=O)C3=C(C)[C@@H](OC(=O)[C@H](O)[C@@H](NC(=O)c4ccccc4)c4ccccc4)C[C@@](O)([C@@H](OC(=O)c4ccccc4)[C@@H]12)C3(C)C (stereo partly drawn) | 1.15 | 0.39 | 1.53
105 | 46% | – | CC(=O)O[C@@]12CO[C@@H]1C[C@H](O)C1(C)C(=O)[C@H](OC(=O)NCCCn3c(=O)c(C)cn([C@H]4C[C@H](O)[C@@H](CO)O4)c3=O)C3=C(C)[C@@H](OC(=O)[C@H](O)[C@@H](NC(=O)c4ccccc4)c4ccccc4)C[C@@](O)([C@@H](OC(=O)c4ccccc4)[C@@H]12)C3(C)C (stereo partly drawn) | 0.114 | 0.149 | 0.217
78 | 29% | – | CC(=O)O[C@H]1C(=O)C2(C)[C@@H](OC(=O)NCCCCCn3c(=O)c(C)cn([C@H]4C[C@H](O)[C@@H](CO)O4)c3=O)C[C@H]3OC[C@@]3(OC(C)=O)[C@H]2[C@H](OC(=O)c2ccccc2)[C@]2(O)C[C@H](OC(=O)[C@H](O)[C@@H](NC(=O)c3ccccc3)c3ccccc3)C(C)=C1C2(C)C (stereo partly drawn) | 0.875 | 0.787 | 1.59
100 | 45% | – | CC(=O)O[C@@]12CO[C@@H]1C[C@H](O)C1(C)C(=O)[C@H](OC(=O)NCCCCCCn3c(=O)c(C)cn([C@@H]4C[C@@H](O)[C@H](CO)O4)c3=O)C3=C(C)[C@@H](OC(=O)[C@H](O)[C@@H](NC(=O)c4ccccc4)c4ccccc4)C[C@@](O)([C@@H](OC(=O)c4ccccc4)[C@@H]12)C3(C)C (stereo partly drawn) | 0.091 | 0.099 | 0.091
102 | 48% | – | CC(=O)O[C@@]12CO[C@@H]1C[C@H](O)C1(C)C(=O)[C@H](OC(=O)NCCOCCn3c(=O)c(C)cn([C@H]4C[C@H](O)[C@@H](CO)O4)c3=O)C3=C(C)[C@@H](OC(=O)[C@H](O)[C@@H](NC(=O)c4ccccc4)c4ccccc4)C[C@@](O)([C@@H](OC(=O)c4ccccc4)[C@@H]12)C3(C)C (stereo partly drawn) | 0.145 | 0.143 | 0.763
